Test results reported in patent publication US20130102595A1 (Curis, Inc., priority 2011, published 2013).
pIC50: −log10 of the molar value.

Columns and labels:
[1] = test system: HDACs (HeLa cell nuclear extracts); test: HDAC enzymatic activity, Biomol Color de Lys system; type: biochemical; conditions: 1 hour, 25° C.
Description: (E) an In Vitro Assay which Determines the Ability of a Test Compound to Inhibit HDAC Enzymatic Activity.
HDAC inhibitory activity was assessed using the Biomol Color de Lys system (AK-500, Biomol, Plymouth Meeting, Pa.). Briefly, HeLa cell nuclear extracts were used as a source of HDACs. Different concentrations of test compounds were serially diluted in dimethylsulphoxide (DMSO) and added to HeLa cell nuclear extracts in the presence of a colorimetric artificial substrate. Final assay condition contained 50 mM Tris/Cl, pH 8.0, 137 mM NaCl, 2.7 mM KCl and 1 mM MgCl2. Reactions were carried in room temperature (25° C.) for 1 hour before addition of developer for termination. Relative enzyme activity was measured in the WALLAC Victor II 1420 microplate reader as fluorescence intensity (excitation: 350-380 nm; emission: 440-460 nm). Data were analyzed using GraphPad Prism (v4.0a) with a sigmoidal dose response curve fitting for IC50 calculation.

[2] = molecular target: T1, PI3Kα (p110α/p85α) (Homo sapiens, UniProt P42336); test: PI3Kα ADP-Glo assay; type: biochemical; conditions: 20 μM PIP2, 10 μM ATP, 30 minutes
T1 construct: GST (N); made in house; host or cells: Baculovirus-infected Sf9 cells
Description: (A) an In Vitro Assay which Determines the Ability of a Test Compound to Inhibit PI3Kα.
Activity of PI3Kα was measured using ADP-Glo assay from Promega. PI3Kα, a complex of N-terminal GST-tagged recombinant full-length human p110α (GenBank, Accession No. U79143) and N-terminal His tagged recombinant full length human p85a (GenBank Accession No. XM—043865) were co-expressed in a Baculovirus infected Sf9 cell expression system. The ADP-Glo assay was performed to measure the amount of ADP generated from ATP hydrolysis coupled with PIP2 phosphorylation by the purified recombinant PI3Kα (p110α/p85α). PI3Kα was incubated with 20 μM PIP2 substrate in the reaction buffer (50 mM HEPES, pH 7.4, 150 mM NaCl, 5 mM MgCl2, 1 mM DTT, 3 uM Naorthovanadate, 10 μM ATP and 0.5% DMSO) for 30 minutes at room temperature. The ADP generated was then detected by ADP-Glo assay from Promega, a luminescent ADP detection assay. The ADP-Glo assay is performed in two steps; first, after the kinase reaction, ADP-Glo Reagent is added to terminate the kinase reaction and deplete the remaining ATP. Second, the Kinase Detection Reagent is added to simultaneously convert ADP to ATP and allow the newly synthesized ATP to be measured using a luciferase/luciferin reaction.

T1 sequence (P42336 whole entry): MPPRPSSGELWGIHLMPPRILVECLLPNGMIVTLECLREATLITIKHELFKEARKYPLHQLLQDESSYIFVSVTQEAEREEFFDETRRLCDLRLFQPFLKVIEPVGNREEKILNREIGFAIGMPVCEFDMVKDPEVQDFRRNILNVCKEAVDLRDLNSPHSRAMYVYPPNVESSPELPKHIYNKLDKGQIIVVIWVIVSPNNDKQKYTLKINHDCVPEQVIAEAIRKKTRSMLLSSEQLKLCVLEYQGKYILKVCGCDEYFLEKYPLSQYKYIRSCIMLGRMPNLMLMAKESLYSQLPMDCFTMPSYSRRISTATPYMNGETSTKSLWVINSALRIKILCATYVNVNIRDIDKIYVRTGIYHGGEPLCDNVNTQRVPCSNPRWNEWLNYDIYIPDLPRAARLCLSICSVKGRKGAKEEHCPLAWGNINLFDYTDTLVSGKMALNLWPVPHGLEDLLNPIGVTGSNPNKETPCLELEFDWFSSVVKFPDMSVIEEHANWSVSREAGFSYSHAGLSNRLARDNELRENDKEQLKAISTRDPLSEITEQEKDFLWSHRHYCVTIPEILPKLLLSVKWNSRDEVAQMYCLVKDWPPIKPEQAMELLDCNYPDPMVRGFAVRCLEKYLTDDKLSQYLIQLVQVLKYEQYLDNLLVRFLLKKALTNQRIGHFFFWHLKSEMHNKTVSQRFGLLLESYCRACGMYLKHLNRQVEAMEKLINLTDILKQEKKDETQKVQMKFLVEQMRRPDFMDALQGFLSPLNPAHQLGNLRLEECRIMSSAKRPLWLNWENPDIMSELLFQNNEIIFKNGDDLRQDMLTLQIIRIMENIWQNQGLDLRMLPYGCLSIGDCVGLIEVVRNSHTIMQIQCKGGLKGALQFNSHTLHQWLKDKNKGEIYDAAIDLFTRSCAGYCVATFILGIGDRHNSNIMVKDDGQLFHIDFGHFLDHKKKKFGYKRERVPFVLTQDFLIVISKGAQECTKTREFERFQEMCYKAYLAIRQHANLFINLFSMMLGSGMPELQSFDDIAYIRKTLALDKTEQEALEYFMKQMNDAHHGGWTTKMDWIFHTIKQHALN
T1 sequence (P27986 whole entry partner): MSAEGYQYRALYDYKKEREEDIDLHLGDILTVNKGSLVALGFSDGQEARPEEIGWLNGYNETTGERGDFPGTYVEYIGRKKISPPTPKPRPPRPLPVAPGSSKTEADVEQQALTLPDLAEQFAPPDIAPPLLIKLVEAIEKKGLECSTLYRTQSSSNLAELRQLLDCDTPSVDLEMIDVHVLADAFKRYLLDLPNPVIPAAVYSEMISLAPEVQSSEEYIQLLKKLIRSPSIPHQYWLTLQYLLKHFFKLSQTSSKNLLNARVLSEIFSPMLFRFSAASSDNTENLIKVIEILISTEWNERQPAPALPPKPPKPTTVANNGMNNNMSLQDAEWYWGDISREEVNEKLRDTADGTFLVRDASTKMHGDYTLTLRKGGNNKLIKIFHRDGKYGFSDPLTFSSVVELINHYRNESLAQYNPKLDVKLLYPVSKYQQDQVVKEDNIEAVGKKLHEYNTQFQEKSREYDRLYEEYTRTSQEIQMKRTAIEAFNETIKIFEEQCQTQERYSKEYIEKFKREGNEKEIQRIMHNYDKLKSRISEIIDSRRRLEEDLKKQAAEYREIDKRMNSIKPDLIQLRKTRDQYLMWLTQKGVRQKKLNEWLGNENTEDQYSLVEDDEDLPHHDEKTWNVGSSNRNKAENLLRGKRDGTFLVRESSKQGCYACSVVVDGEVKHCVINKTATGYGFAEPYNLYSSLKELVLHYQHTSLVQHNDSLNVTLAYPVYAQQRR

Row | Structure (SMILES) | pIC50 [1] | pIC50 [2]
1 | CS(=O)(=O)N1CCN(Cc2cc3nc(-c4cccc5c4cnn5CCCCCCC(=O)NO)nc(N4CCOCC4)c3s2)CC1 [Compound 5, N-hydroxy-7-(4-(6-((4-(methylsulfonyl)piperazin-1-yl)methyl)-4-morpholinothieno[3,2-d]pyrimidin-2-yl)-1H-indazol-1-yl)heptanamide] | > 7.00 | < 5.00
2 | O=C(CCCCNc1cc2nc(-c3cccc4[nH]ncc34)nc(N3CCOCC3)c2s1)NO [Compound 18] | > 7.00 | 6.00 to 7.00
3 | O=C(CCCCCNc1cc2nc(-c3cccc4[nH]ncc34)nc(N3CCOCC3)c2s1)NO [Compound 19] | > 7.00 | 6.00 to 7.00
4 | O=C(CCCCCCNc1cc2nc(-c3cccc4[nH]ncc34)nc(N3CCOCC3)c2s1)NO [Compound 20] | > 7.00 | 6.00 to 7.00
5 | CS(=O)(=O)N1CCN(Cc2cc3nc(-c4cccc5[nH]ncc45)nc(NCCCCC(=O)NO)c3s2)CC1 [Compound 34] | – | < 5.00
6 | CS(=O)(=O)N1CCN(Cc2cc3nc(-c4cccc5[nH]ncc45)nc(NCCCCCC(=O)NO)c3s2)CC1 [Compound 35] | – | < 5.00
7 | CS(=O)(=O)N1CCN(Cc2cc3nc(-c4cccc5[nH]ncc45)nc(NCCCCCCC(=O)NO)c3s2)CC1 [Compound 36] | – | < 5.00
8 | O=C(NO)c1cc2nc(-c3cccc4[nH]ncc34)nc(N3CCOCC3)c2s1 [Compound 45] | < 5.00 | > 7.00
9 | O=C(/C=C/c1cc2nc(-c3cccc4[nH]ncc34)nc(N3CCOCC3)c2s1)NO [Compound 46] | 5.00 to 6.00 | 6.00 to 7.00
10 | O=C(NO)c1cnc(N2CCC(CNc3cc4nc(-c5cccc6[nH]ncc56)nc(N5CCOCC5)c4s3)CC2)nc1 [Compound 48] | > 7.00 | > 7.00
11 | CN(CC1CCN(c2ncc(C(=O)NO)cn2)CC1)c1cc2nc(-c3cccc4[nH]ncc34)nc(N3CCOCC3)c2s1 [Compound 49] | 6.00 to 7.00 | > 7.00
12 | O=C(/C=C/c1ccc(S(=O)(=O)Nc2cc3nc(-c4cccc5[nH]ncc45)nc(N4CCOCC4)c3s2)cc1)NO [Compound 50] | > 7.00 | > 7.00
13 | O=C(NO)c1cnc(N2CCN(S(=O)(=O)c3cc4nc(-c5cccc6[nH]ncc56)nc(N5CCOCC5)c4s3)CC2)nc1 [Compound 51] | 6.00 to 7.00 | > 7.00
14 | CN(Cc1cc2nc(-c3cccc4[nH]ncc34)nc(N3CCNCC3)c2s1)c1ncc(C(=O)NO)cn1 [Compound 60] | > 7.00 | < 5.00
15 | CN1CCN(c2nc(-c3cccc4[nH]ncc34)nc3cc(CN(C)c4ncc(C(=O)NO)cn4)sc23)CC1 [Compound 61] | > 7.00 | < 5.00
16 | CC(=O)N1CCN(c2nc(-c3cccc4[nH]ncc34)nc3cc(CN(C)c4ncc(C(=O)NO)cn4)sc23)CC1 [Compound 62] | > 7.00 | < 5.00
17 | CN(Cc1cc2nc(-c3cccc4[nH]ncc34)nc(N3CCN(CCO)CC3)c2s1)c1ncc(C(=O)NO)cn1 [Compound 63] | > 7.00 | < 5.00
18 | CC1CN(c2nc(-c3cccc4[nH]ncc34)nc3cc(CN(C)c4ncc(C(=O)NO)cn4)sc23)CC(C)O1 (centres unmarked) [Compound 65] | > 7.00 | 6.00 to 7.00
19 | CC1COCC(C)N1c1nc(-c2cccc3[nH]ncc23)nc2cc(CN(C)c3ncc(C(=O)NO)cn3)sc12 (centres unmarked) [Compound 66] | > 7.00 | 6.00 to 7.00
20 | CN(Cc1cc2nc(-c3cccc4[nH]ncc34)nc(N3CCCCC3)c2s1)c1ncc(C(=O)NO)cn1 [Compound 67] | > 7.00 | 6.00 to 7.00
21 | CN(Cc1cc2nc(-c3ccc4c(c3)OCCN4)nc(N3CCOCC3)c2s1)c1ncc(C(=O)NO)cn1 [Compound 191] | > 7.00 | –
22 | CC(c1cc2nc(-c3ccc(N)cc3)nc(N3CCOCC3)c2s1)N(C)c1ncc(C(=O)NO)cn1 (centres unmarked) [Compound 214] | > 7.00 | –
23 | CN(c1ncc(C(=O)NO)cn1)C(C)(C)c1cc2nc(-c3ccc(N)cc3)nc(N3CCOCC3)c2s1 [Compound 270] | > 7.00 | –
24 | CN(Cc1cc2nc(-c3cccc4[nH]c(=O)[nH]c34)nc(N3CCOCC3)c2s1)c1ncc(C(=O)NO)cn1 [Compound 316] | – | > 7.00
